# Reference: US20220370636A1, “NICOTINAMIDE ADENINE DINUCLEOTIDE ACTIVATOR AND USE THEREOF” (University of South Florida, priority 2021, published 2022)
# Legend:
# C2C12 cells = assay: LPS induced LDH release in C2C12 skeletal myotubes; type: cell-based, mouse; details: P7C3 1 μM 24 hours
# db/db mice [1] = assay: Pancreatic β cells immunostaining and Gomori aldehyde fuchsin staining in db/db mice; type: in vivo; details: 4 weeks
# Experimental: Immunostaining. Immunostaining of the pancreas was performed for the measurement of insulin secreting β cells area, as previously described. Briefly, the frozen pancreatic tissues were fixed into tissue freezing media (TFM). Pancreas were cut into 10 μm thick sections and kept at −80° C. For immunostaining, the slides were first air dried and washed with phosphate buffer saline (PBS). The sections were then fixed in 4% paraformaldehyde for 30 min and blocked with SuperBlock™ T20 (TBS) blocking buffer (Thermo scientific, MA, USA) for 30 min, at room temperature (RT). Slides were then incubated with insulin primary antibody (sc-9168, Santa Cruz, TX, USA) diluted in blocking buffer (1:200), overnight at 4° C. Slides were then washed in PBS and incubated with Alexa Fluor®488 secondary antibody (Abcam, Mass., USA) diluted in blocking buffer for 1 h at RT. Following washes, the slides were then mounted with ProLong® Gold antifade mountant containing DAPI (Molecular Probe, OR, USA). Nuclei were labelled by DAPI. The images obtained with confocal multiphoton laser scanning microscope (Olympus FV1000 MPE, Olympus Inc., USA) were quantified by using ImageJ software (NIH, USA). The cross-sectional areas of pancreas and β cells were determined from multiple sections (n=3 mice per group), separated by at least 50 μm from each section. Pancreatic β cell area was calculated by using the following formula: islet β cell area (%)=(area stained by insulin anti-body/total islets area)×100.
# Gomori aldehyde fuchsin staining. The Gomori aldehyde fuchsin staining of the pancreatic β cells was performed as per previously published protocol. Briefly, the frozen pancreas was TFM embedded and cut into 6 μm thick transverse serial cryosections using Microm cryostat machine. The slides were air dried at 60° C. and dewaxed using xylene and then hydrated through decreasing concentrations of ethyl alcohol. The slides were then rinsed in cold tap water followed by a single rinse in 50% ethanol and immersed in aldehyde fuchsin (Electron Microscopy Services, PA, USA) for 1 h. The excess stain was removed by rinsing in 70% ethanol and tap water. The slides were then counter-stained with Light Green (American Master Tech Scientific, CA, USA) through immersion for 60 s and dehydrated with increasing concentration of ethanol, and cleared with xylene. The sections were then mounted with disterene phthalate xylene (DPX) mountant (Sigma-Aldrich, MO, USA). Images were obtained at ×20 magnification with the Olympus IX73 inverted microscope using CellSens Standard software (Olympus Soft Imaging Solution, USA) and quantified with ImageJ software (NIH, USA).
# db/db mice [2] = assay: qPCR gene expression of gastrocnemius muscle and MyHC1 myofibre staining in db/db mice; type: in vivo
# Experimental: Quantitative real-time PCR. Total RNA was isolated from GAS muscle using the Exiqon miRCURY RNA Isolation kit (Exiqon, Mass., USA) according to the manufacturer's protocol. Complimentary DNA from total RNA was synthesized with iScript cDNA synthesis kit (Bio-Rad Laboratories, CA, USA) and quantitative real-time PCR (qPCR) analysis was performed on key transcriptome targets using iTaq Universal SYBR Green Supermix (Bio-Rad Laboratories, CA, USA). The cDNA synthesis and qPCR procedures were performed as described previously. The mouse HPRT gene was used as an internal control.
# Myofibre staining. The 10 μm thick transverse serial cryosections of TA muscles were cut at the mid-belly region using Microm cryostat ma-chine. Briefly, the tissue sections were blocked with 0.2% bovine serum albumin (BSA) and 10% normal sheep serum (NSS) in PBS-Triton X100 (PBST) for 1 h at RT. All washes were carried out with PBS. Following washing, the sections were incubated in 5 μg/mL of mouse monoclonal primary antibody against myosin heavy chain type-1 (A4.840s DSHB, IA, USA) in 0.2% BSA and 5% NSS antibody dilution buffer in PBST overnight at 4° C. After washing, the sections were then fixed with 10% neutral buffered formalin for 5 min at RT, washed and incubated in 1:300 dilution of biotinylated sheep anti-mouse IgG (ab6807, Abcam, Mass., USA) and 1:1000 dilution of rabbit anti-laminin (L9393, Sigma-Aldrich, MO, USA) in the antibody dilution buffer for 1 h at RT. Following washes, the tissue sections were then incubated in 1:400 dilution of streptavidin AF488 conjugate and goat anti-rabbit AF594 (Invitrogen, CA, USA) and then washed and mounted with Prolong gold anti-fade mounting medium with DAPI (Invitrogen, CA, USA). Images were obtained at ×10 and ×20 magnifications with the Olympus IX73 inverted microscope using CellSens Standard software (Olympus Soft Imaging Solution, USA) and the MyHC1 positive myofibres were quantified with ImageJ software.
# db/db mice [3] = assay: Serum HDL and LDL/VLDL in db/db mice; type: in vivo; details: vs db-Veh
# Text: Fasting blood glucose and serum lipid.
# [4] = system: Nampt+/− and littermate WT mice; assay: Glucose tolerance test in Nampt+/- and littermate WT mice; type: in vivo; details: vs vehicle
# Nampt = biological target: T1, Nampt (Mus musculus, UniProt Q99KQ4); assay: Cardiac Nampt enzymatic activity in db/db mice; type: in vivo; details: 10 mg/kg body weight/day, i.p., four-week, vs vehicle
# T1 construct: from tissue; host or cells: whole heart homogenate of db/db mice
# Text: Nampt enzymatic activity.
# Sirt1 = Sirt1 deacetylase activity in db/db heart lysates; type: in vivo, mice; details: vs vehicle controls
# Experimental: Sirt1 deacetylase activity. Sirt1 deacetylase activity was measured in the whole heart lysates from the vehicle and P7C3 treated db/db mice according to the manufacturer's protocol using a deacetylase fluorometric assay kit (Sigma-Aldrich, MO, USA). The fluorescence intensity was measured at 440 nm (excitation, 340 nm).
# [5] = gastrocnemius muscle, vs db-Veh
# [6] = gastrocnemius muscle, vs db-Veh and C57Bl/6J
# [7] = gastrocnemius muscle, vs db-Veh and WT
# T1 sequence (Q99KQ4 whole entry): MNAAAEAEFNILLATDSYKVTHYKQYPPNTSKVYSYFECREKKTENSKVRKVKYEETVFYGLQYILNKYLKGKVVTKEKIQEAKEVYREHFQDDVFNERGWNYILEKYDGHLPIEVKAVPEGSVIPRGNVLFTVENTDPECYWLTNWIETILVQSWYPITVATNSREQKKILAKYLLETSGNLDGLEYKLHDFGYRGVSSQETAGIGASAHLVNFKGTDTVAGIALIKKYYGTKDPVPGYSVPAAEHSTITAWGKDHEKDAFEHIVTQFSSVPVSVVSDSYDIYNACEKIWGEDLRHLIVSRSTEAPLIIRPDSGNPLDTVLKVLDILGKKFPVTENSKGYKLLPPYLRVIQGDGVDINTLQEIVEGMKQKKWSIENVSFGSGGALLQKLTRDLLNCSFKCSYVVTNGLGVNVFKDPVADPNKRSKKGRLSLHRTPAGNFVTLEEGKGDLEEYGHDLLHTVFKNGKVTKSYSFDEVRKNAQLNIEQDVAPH
compound,measurement,setting,value
"OC(CNc1ccccc1)Cn1c2ccc(Br)cc2c2cc(Br)ccc21 (stereo not drawn) [P7C3, 3,6-Dibromo-a-[(phenylamino)methyl]-9H-carbazole-9-ethanol]",LPS induced LDH release (inflammation in vitro),C2C12 cells,attenuated
same,number of islet of Langerhans per tissue section,db/db mice [1]; vs db-Veh,significant increase
same,number of β cells per islets of Langerhans,db/db mice [1]; vs db-Veh,increased
same,number of β cells per tissue section,db/db mice [1]; vs db-Veh,significant increase
same,insulin positive β cells area per islet of Langerhans area,db/db mice [1]; vs vehicle,significant increase
same,TNFα expression in skeletal muscle,"db/db mice [2]; gastrocnemius muscle, db-Veh vs db-P7C3",high levels in db-Veh compared with db-P7C3
same,CD36 expression,db/db mice [2]; [5],significantly down-regulated
same,Fabp1 expression,db/db mice [2]; [5],significantly down-regulated
same,Fgf21 expression,db/db mice [2]; [5],significant reduction
same,MyHC type 1 (MyHC1) expression levels,db/db mice [2]; [5],significant de-crease
same,Cpt1 expression,db/db mice [2]; [6],significantly up-regulated
same,Pdk4 expression,db/db mice [2]; [6],significantly up-regulated
same,MyHC-2a expression levels,db/db mice [2]; [7],no significant change
same,MyHC-2b expression levels,db/db mice [2]; [7],no significant change
same,MyHC-2× expression levels,db/db mice [2]; [7],no significant change
same,number of MyHC1 positive myofibres,"db/db mice [2]; tibialis anterior immunostaining, vs db-Veh",significant decrease
same,HDL lipoproteins level,db/db mice [3],significant increase
same,LDL/VLDL lipoproteins level,db/db mice [3],significant decrease
same,GTT circulating blood glucose levels,"[4]; Nampt littermate WT mice, single dose 10 mg/kg i/p",significant decrease
same,GTT percent AUC,[4]; Nampt littermate WT mice,significant decrease
same,GTT blood glucose levels,"[4]; Nampt+/− mice, single dose 10 mg/kg i/p",did not show any significant effect
same,GTT percent AUC,[4]; Nampt+/− mice,no significant differences
same,cardiac Nampt activity,Nampt,significantly increased
same,SiRT1 activity in cardiac tissue,Sirt1,significant increase
